We go through 7 compounds from US20190365717A1, “TREATING PATHOLOGICAL CONDITIONS BY DIRECT AND INDIRECT TARGETING OF SIRPA-CD47 INTERACTION” (STICHTING HET NEDERLANDS KANKER INSTITUUT-ANTONI VAN …, priority 2017, published 2019).

Series [1] has as its system B16F10 melanoma cells and Ba/F3-Her2 pro-B cells. As to the kind of experiment: SEN177 treatment of murine cells, mSIRPα-Fc and αmCD47-MIAP301 binding, flow cytometry. The class given is cell-based. To be noted: SEN177, both cell lines. How it is done: (§1) After indicated antibody stainings, cells were washed with FACS buffer to remove unbound antibody and DAPI was added to allow dead cell exclusion and samples were analyzed on an LSRII or LSRFortessa (BD Bioscience).
(§2) DMSO or inhibitor was refreshed every day and after four days, cells were analyzed by flow cytometry.

The subject of series [2] is Ba/F3-Her2 cells. In words: ADCC of 51Cr-labeled Ba/F3-Her2 target cells by human effector cells. The series is classed as cell-based, murine. To be noted: human neutrophils, with anti-Her2, 10 μM SEN177, 4 h 51Cr-release. The method, then:
(§3) Briefly, 1×10^6 target cells were labelled with 100 μCi (3.7 MBq) ^51Cr for 2 h. After extensive washing, cell numbers were adjusted to 1×10^6/mL. The polymorphonuclear leukocyte (PMN) fraction from peripheral blood of healthy donors (UMC Utrecht, Utrecht) was isolated by Ficoll/Histopaque separation (GE Healthcare; Sigma-Aldrich). Effector cells and target cells were added to round-bottom microtiter plates (Corning Incorporated) (E:T ratio=40:1), in the presence of the indicated concentration of a Her2 antibody. After 4 h incubation at 37° C., ^51Cr release was measured. Percentage specific lysis was calculated using the following formula: ((experimental cpm—basal cpm)/(maximal cpm—basal cpm))×100, with maximal lysis determined in the presence of 3% triton and basal lysis determined in the absence of antibody and effector cells. […] All experiments were performed in triplicate.

In series [3] the test system is A375, A431, Raji, A549, DLD1, HAP1, RKO and SKBR3 cells. As to the kind of experiment: SEN177 and PQ912 treatment, cell surface binding of hSIRPα-Fc and anti-CD47 antibodies, flow cytometry. The series is classed as cell-based, human. Set-up: dose or concentration left out as unconfirmed. To be noted: refreshed every day, four days. The method, then: as §1, §2
(In general: A flow cytometer gives signals particle by particle.)

The subject of series [4] is short-term cultures of melanoma xenografts. As to the kind of experiment: SEN177 treatment of short-term melanoma PDX cell lines, FACS binding. The class given is cell-based, human. To be noted: 10 μM SEN177 for 4 days, six cultures. An excerpt: Cell lines: Short-term cell lines from primary melanoma patient-derived xenografts (PDX) were generated as described (Kemper et al., EMBO Mol. Med. 7, 1104-1118, 2015) and were a gift from D. Peeper and K. Kemper. […]

Series [5] relates to Ba/F3-Her2 cells. In words: ADCC of 51Cr-labeled Ba/F3-Her2 target cells by mouse effector cells. The class given is cell-based. To be noted: murine immune cells isolated from whole blood as effector cells, anti-Her2 IgA1. The method, then:
as §3
In brief, to obtain mouse effector cells, blood was collected from pegylated granulocyte colony-stimulating factor (G-CSF)-stimulated human FcaRl transgenic Balb/c mice from the retro-orbital plexus into Li-heparin tubes. Erythrocytes were lysed by incubation in water for […], and total leukocytes were resuspended in medium (half the volume of the original blood volume). 50 μL of total leukocytes, containing ˜70% PMNs, were added per well.

Series [6] deals with QPCTL-deficient lung cancer (A549) and epidermoid carcinoma (A431) cells. As to the kind of experiment: SEN177 treatment of QPCTL-deficient cells, SIRPα binding by flow cytometry. The class given is cell-based, human. The method, then:
as §1, §2

The subject of series [7] is pyroglutamate-modified CD47 in A375 melanoma cells. As to the kind of experiment: Analysis of αCD47-CC2C6 / αCD47-B6H12 immunoprecipitates of HA-tagged CD47. The class given is cell-based, human. To be noted: untreated versus SEN177-treated cells, 10 μM SEN177 for 16 h. The method, then: At the day of analysis, cells were starved in methionine- and cysteine-free medium for 1 h at 37° C. Subsequently, cells were pulse-labelled with 0.75 mCi/600 μL [^35S]Cys/[^35S]Met (PerkinElmer) for the indicated time period. Cells were washed with PBS to remove residual [^35S]Cys/[^35S]Met and then cultured in regular medium with 1 mM ‘cold’ methionine and cysteine for the indicated time period. Cells were lysed and [^35S]Cys/[^35S] incorporation was measured via TCA precipitation of aliquots of lysates on 3 MM Whatman paper and counting in a Perkin Elmer LSC 2800 ultima gold scintillation counter. Next, for pre-clearing and IP purposes, purified mouse IgG1 kappa isotype control (Biolegend, 400102), anti-human CD47 antibody B6H12.2 (Novus, NBP2-31106), and purified anti-human CD47 antibody CC2C6 (Biolegend, 323102) was bound to protein-G-coated Dynabeads (ThermoFisher Scientific) according to manufacturer's instructions. […] Next, immunoprecipitates were heated at 50° C. for 10 min with 2× Laemmli buffer and analyzed using a Novex NuPAGE Gel Electrophoresis System (Thermo Fisher Scientific). Gels were treated with 1 M Na salicylate pH 5.6 before drying and then analyzed on Fujifilm BAS-MP phosphor imager screens 4° C. Screens were analyzed on a lasser scanner Typhoon FLA 9500.

In a further series the target is T1, recombinant human isoQC (Homo sapiens, UniProt Q9NXS2).
T1 construct: enzymatically active region of human isoQC (S53-L382, Huang et al., JBC, 286, 12439-12449, 2011); GST with enterokinase site (N, cleaved yes); made in house; host or cells: E. coli, pET41(+) vector
T1 sequence (Q9NXS2 53-382): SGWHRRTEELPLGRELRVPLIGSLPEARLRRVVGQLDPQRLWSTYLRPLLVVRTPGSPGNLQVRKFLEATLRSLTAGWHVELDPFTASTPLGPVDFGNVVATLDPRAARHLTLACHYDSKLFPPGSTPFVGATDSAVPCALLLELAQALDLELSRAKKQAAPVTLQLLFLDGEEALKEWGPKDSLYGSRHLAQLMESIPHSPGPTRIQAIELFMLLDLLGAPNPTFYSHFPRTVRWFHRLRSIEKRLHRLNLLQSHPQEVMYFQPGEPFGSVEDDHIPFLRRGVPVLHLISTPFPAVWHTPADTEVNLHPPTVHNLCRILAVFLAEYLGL
As to the kind of experiment: IsoQC assay (coupled H-Gln-AMC / pGAPase fluorescence assay). The series is classed as biochemical. To be noted: 10 μM H-Gln-AMC, 1 hour at 37° C., maximum and ten- and hundredfold lower concentrations. The source says:
The Golgi luminal, enzymatically active region of human isoQC (S53-L382, Huang et al., JBC, 286, 12439-12449, 2011) was obtained by expression in E. coli of an N-terminally GST-Enterokinase, C-terminally 6× His tagged construct (“6× His” disclosed as SEQ ID NO: 15) in the pET41(+) vector and subsequent purification and enterokinase digestion. Absence of pyroglutamylating activity in an enzymatic dead variant that was cloned, expressed and purified in parallel ruled out that the purification strategy isolates any endogenously present pyroglutamylating activity.
Inhibition of isoQC activity was assessed by incubating 30 μl 50 mM Tris pH8.0 solutions containing 10 μM H-Gln-AMC (Bachem cat.no. 4003647.0100, dissolved in 25 mM HEPES), 1% DMSO and 750 pg/μl recombinant isoQC in the presence or absence of inhibitor for 1 hour at 37° C. A 5-minute incubation at 98° C. followed to stop the reaction and inactivate the enzyme. Next, 25 μl of the reaction was transferred to a 384-well plate containing 25 μl pGAPase enzyme (1:200 diluted in 50 mM Tris pH8.0, 10 mM Dithiothreitol (DTT), enzyme obtained from Qiagen, cat. no. 34342) and incubated for 10 minutes at 37° C. before reading the fluorescence using a SpectraMax Id3 platereader with excitation wavenlength set at 380 nm and emission at 450 nm. Readings were corrected by subtracting background signal from a control well containing no isoQC enzyme and subsequently normalized by dividing through the signal of a well containing enzyme but no inhibitor.

In series [8] the test system is CD47 pyroglutamylation in HAP1 cells. As to the kind of experiment: QPCTL inhibitor assay: CD47 pyroglutamylation (CC2C6 / 2D3 staining). The class given is cell-based, human. To be noted: 48 hours, 10-fold dilutions, maximum 500 μM. How it is done: An equal volume of HAP1 (200,000/well), A375 (50,000/well) or RKO (100,000/well) cells was added and QPCTL and CD47 knockout cells were taken along in control wells.
After 48 hours incubation at 37 degrees, 5% CO2, cells were washed once with PBS before releasing with 100 μl TrypIE dissociation reagent per well and transfer to V-bottom 96-well plates (Greiner Bio-One) pre-filled with 100 μl FACS buffer (10% FCS/PBS). Cells were spun 3′ at 3000 rpm, washed once with FACS buffer and again spun 3′ at 3000 rpm. Next, cells were incubated for 2 hours at 4 degrees with a mix of 1:500 FITC-conjugated anti-human CD47 clone 2D3 and 1:500 Alexa647-conjugated anti-human CD47 clone CC2C6 for the pyroglutamylation assays. Alternatively, cells were incubated with 50 μl 1:50 recombinant SIRPα-human Fc fusion protein in FACS buffer for the SIRPα assays. For the SIRPα assays, two wash steps followed by spinning 3′ at 3000 rpm and resuspending the cells in FACS buffer before spinning a final time and resuspending and incubating the pellet for 1 hour at 4 degrees in 100 μl 1:100 APC-conjugated rabbit-anti-human antibody. Cells of both assay were spun down and washed twice with FACS buffer to remove unbound antibody. Cells were again spun down and taken up in 300 μl FACS buffer before analyzed on a FACSAria III using FACS Diva software (BS Biosciences). The median fluorescence intensity (MFI) of each sample was linearly transformed to scale between the MFIs of wildtype and CD47 knockout cells in case of the 2D3 antibody and the wildtype and QPCTL knockout cells in case of the CC2C6 antibody.

The conditions of series [9]: Phase 1 study with 200 healthy young and elderly volunteers; cited from earlier work.
A further series has as its system QPCT and QPCTL. To be noted: Phase 1 study with 200 healthy young and elderly volunteers; cited from earlier work.
The target of the next series is human QPCTL (Homo sapiens, UniProt Q9NXS2). To be noted: cited from earlier work.
Sequence of human QPCTL (Q9NXS2 whole entry, the tested form may be a part): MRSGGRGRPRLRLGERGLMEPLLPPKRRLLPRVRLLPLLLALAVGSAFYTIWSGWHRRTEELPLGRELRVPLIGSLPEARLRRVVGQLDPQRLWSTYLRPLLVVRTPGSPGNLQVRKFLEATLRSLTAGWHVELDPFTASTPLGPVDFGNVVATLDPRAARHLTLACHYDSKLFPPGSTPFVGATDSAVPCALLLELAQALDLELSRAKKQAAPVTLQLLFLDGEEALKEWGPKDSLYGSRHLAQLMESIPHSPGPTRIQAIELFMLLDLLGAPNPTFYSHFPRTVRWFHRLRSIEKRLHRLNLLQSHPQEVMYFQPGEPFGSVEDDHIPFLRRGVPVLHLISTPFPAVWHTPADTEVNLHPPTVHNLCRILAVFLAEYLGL
A further series relates to HAP1 cells. As to the kind of experiment: Small molecule inhibition of glutaminyl cyclase: anti-CD47 clone CC2C6 binding, flow cytometry. The class given is cell-based, human. How it is done: (§4) Surface levels of CD47 were assessed by performing immunohistochemical staining cells with fluorochrome labelled antibodies directed against CD47 (clones CC2C6, 2D3, B6H12., see Table 1) at a dilution of 1:50 in PBS containing 0.5% w/v BSA (Sigma) and 0.2% w/v sodium azide (Sigma) (“FACS buffer”) for 30 minutes, at 4° C., protected from light. SIRPα binding to CD47 was assessed by incubating cells with recombinant extracellular domain of human SIRPα fused to human IgG ((SIRPα-Fc); Recombinant Human SIRP alpha/CD172a Fc Chimera Protein see Table 1) at a dilution of 1:50 in FACS buffer for 30 minutes, at 4° C., protected from light. After 1 wash with FACS buffer to remove unbound SIRPα-Fc, cells were immunostained with a fluorochrome labelled antibody against human IgG (HP6017, see Table 1) for 30 minutes, at 4° C., protected from light. After 2 washes with FACS buffer to remove unbound antibody, immunohistochemical staining intensity or binding intensity was analyzed on an LSRII (BD Bioscience).

Series [10] relates to HAP1, RKO, A375, A549 and DLD1 cells. To be noted: PBD150 1000 microM, 72 hours, medium refreshed every 24 hours. How it is done:
as §4
Next, HAP1, RKO, A375, A549 and DLD1 cells were treated for 72 hours with PBD150 (1000 microM) or vehicle and medium was refreshed every 24 hours.

As to `Cn1cnnc1C1CCN(c2ncccc2-c2ccc(F)nc2)CC1` [SEN177], in [1], the “binding of SIRPα (mSIRPα-Fc)” value is reported as “reduced” and the “total CD47 surface levels” value is reported as “without altering”. Further, the “neutrophil-mediated lysis of tumor cells” value with Ba/F3-Her2 cells [2] is recorded as “synergized”. The CD47 surface levels entry in [3] is “unaffected”. For the same compound, the SIRPα-Fc staining entry in series [3] (8 out of 8 cell lines tested, same extent as in QPCTL deficient cells) is “reduced”. In series [4], the CD47 protein levels entry is “unaltered”. Further, the “Binding of SIRPα” value in series [4] (versus untreated cells) was “significantly decreased”. Besides, in the series with Ba/F3-Her2 cells [5], the “lysis of tumor cells by murine immune cells” value was “same effects”. Besides, in series [6], the SIRPα binding result was “did not further reduce”. For the same compound, the “pyroglutamate-modified CD47” value in series [7] was “near-complete inhibition”.

On to `Cc1ccc(C2C(c3ccc(O)cc3)=C(O)C(=O)N2CCCn2ccnc2)cc1` (centres unmarked) [compound 000046, 3-Hydroxy-4-(4-hydroxy-phenyl)-1-(3-imidazol-1-yl-propyl)-5-p-tolyl-1,5-dihydro-pyrrol-2-one], for which the isoQC activity entry at recombinant human isoQC was “did show some activity”. Also, the “pE-CD47 signal (antibody clone CC2C6)” value in [8] is listed as “did not show convincing reactivity”.

Regarding `Cc1ccc(C2C(=S)NC(=O)N2c2ccc3[nH]cnc3c2)c(F)c1F` (centres unmarked) [compound 000040, 1-(1H-benzo[d]imidazol-5-yl)-5-(2,3-difluoro-4-methylphenyl)-4-thioxoimidazolidin-2-one], the isoQC activity result at recombinant human isoQC is “did show some activity”. For the same compound, the “pE-CD47 signal (antibody clone CC2C6)” value in series [8] is “did not show convincing reactivity”.

Consider `CCCOc1ccc([C@H]2CNC(=O)N2c2ccc3[nH]cnc3c2)cc1` [PQ912, (S)-1-(1H-benzo[d]imidazole-5-yl)-5-(4-propoxyphenyl)imidazolidin-2-one], for which the safety and tolerability result in series [9] is “safe and well-tolerated”. In addition, the “level of QPCT and QPCTL inhibition” value with QPCT and QPCTL is given as “high level”.

With `O=C(C1=C(O)C(=O)N(c2ccc3[nH]cnc3c2)C1c1cccc(F)c1F)c1ccccc1` (centres unmarked) [compound 000033, 1-(1H-benzo[d]imidazol-5-yl)-4-benzoyl-5-(2,3-difluorophenyl)-3-hydroxy-1H-pyrrol-2(5H)-one], at recombinant human isoQC, the isoQC activity entry is listed as “did show some activity”. Also, the “pE-CD47 signal (antibody clone CC2C6)” value in [8] is listed as “did not show convincing reactivity”.

For `O=C(C1=C(O)C(=O)N(c2ccc3[nH]cnc3c2)C1c1ccc(Cl)c(Cl)c1)C1CCCCC1` (centres unmarked) [compound 000015, 1-(1H-Benzoimidazol-5-yl)-4-cyclohexanecarbonyl-5-(3,4-dichloro-phenyl)-3-hydroxy-1,5-dihydro-pyrrol-2-one], the isoQC activity entry at recombinant human isoQC is “did show some activity”. The “pE-CD47 signal (antibody clone CC2C6)” value in [8] is recorded as “did not show convincing reactivity”.

Turning to `COc1ccc(NC(=S)NCCCn2ccnc2)cc1OC` [PBD150], the Ki at human QPCTL was 60 nM. Also, in the series with HAP1 cells (HAP1 cells subsequently cultured 48 hrs without PBD150), the “CC2C6 binding after withdrawal” value is reported as “restored to normal levels”. The “CC2C6 bound to the surface” value in the series on HAP1 cells (HAP1 cells, 72 hours, PBD150 1000 microM) is “decreased”. Moreover, in series [10], the 2D3 binding entry is reported as “unchanged”, the CC2C6 binding entry is reported as “decreased” and the SIRPα-Fc binding result was “decreased”.

One may read the Ki as a dissociation constant, usually derived from enzyme kinetics or from competition with a known ligand.
